“Also recorded” adds a separate entry of the source.
Legend:
[1] = system: RevNES-biosensor; assay: RevNES-biosensor translocation (NES-mediated nuclear export) in living HeLa cells, fluorescence microscopy; type: cell-based; conditions: for Cellular localization of green fluorescent RevNES-biosensor: HeLa; for Topt at 25µM: Table 4, fluorescence microscopy; for Mode of Inhibition: reversal of export inhibition after 24h, C5: 5-12h observation
Protocol: (§1) The activity of compounds C3, C5 and C24 to inhibit NES-mediated nuclear export in living cells was analyzed as described in Fetz et al., 2009 using living HeLa (cervix carcinoma), FaDu (head and neck cancer), MDA-MB231 (mammacarcinoma) and SW480 cells (colon cancer) which transiently expressed the RevNES-biosensor. The RevNES-biosensor is a fusion protein composed of (from N to C terminus) the SV40 large T-antigen nuclear localization signal (NLS), glutathion-S-transferase (GST), green fluorescent protein (GFP) and the nuclear export signal (NES) of the HIV-1 (human immunodeficiency virus) Rev protein (RevNES).
The cells of the control were treated with a corresponding amount of DMSO only. The cellular localization of RevNES-biosensor was monitored by fluorescence microscopy. […] Maximum of cellular accumulation was observed after 1h (C24), after 2h (C3) and after 5h (C5), respectively. […] Thus, the inhibitory activity of C3 and C24 (reversible) but not of C5 (irreversible) was reversed after 24h. Table 1: Cellular localization of green fluorescent RevNES-biosensor
Table 3: Cellular localization of green fluorescent RevNES-biosensor
IC50 value corresponds to compound concentration reducing HeLa cell viability by 50%. Topt is the time point post treatment when maximum nuclear export inhibition was observed by fluorescence microscopy. Table 4: Functional characteristics of nuclear export inhibitors

[2] = system: RevNES-biosensor; assay: RevNES-biosensor translocation in living FaDu, MDA-MB231 and SW480 cells, fluorescence microscopy; type: cell-based; conditions: at Topt
Protocol: as §1
Maximum nuclear localization of fluorescence was observed after 2h (C3) and 5h (C5), respectively. Table 2: Cellular localization of green fluorescent RevNES-biosensor

[3] = system: Survivin; assay: Nuclear export of Survivin-GFP fusion transiently expressed in HeLa cells; type: cell-based; conditions: transient expression, 25µM
Protocol: The activity of compounds to inhibit the export of the oncologically relevant protein Survivin as well as of the HIV-1 Rev protein was analyzed.
Nuclear export of Survivin is crucial for its tumor promoting cytoprotective activity (Engels et al., 2007; Knauer et al., 2007a; Knauer et al., 2007b).

[4] = system: A431; assay: Cell viability (CellTiter-Glo) and cell death, A431; type: cell-based; conditions: for cell death induced by treatment: A431 (epidermoid carcinoma), 25µM; for viability compared to the control: A431, 100µM, 72h, CellTiter-Glo
Protocol: To test the anti-cancer activity of the compounds, several cancer cell lines, currently used as models for different epithelial cancers and leukemias, were treated with the indicated inhibitors. […] Every 24h, the cell culture medium was replaced by fresh compound-containing medium. 72h post treatment, cell were analyzed by adding 100µl CellTiter-Glo® assay reagent (Promega). Luminescence was measured with a LuminoskanAscent device (ThermoScientific). Cells treated with a corresponding amount of DMSO only were use as a control. The luminescence (equals cell viability) of said control was set to 100%.

[5] = system: K562 (Bcr-Abl^+); assay: Cell death, K562; type: cell-based; conditions: K562 (Bcr-Abl^+) (chronic myeloid leukemia, CML), 25µM
[6] = system: HeLa cells; assay: Apoptosis by immunoblot detection of cleaved Caspase 3 and PARP cleavage in HeLa lysates; type: cell-based; conditions: 25µM, lysates 72h post treatment
Description: Lysates of cells treated DMSO only were used as a control.

[7] = system: K562; assay: AlamarBlue viability assay, K562, alone and combined with imatinib; type: cell-based, human; conditions: K562, 25µM, 72h, single agent
Protocol: The BCR-ABL^+ human chronic myeloid leukemia (CML) cell line K562 was used to investigate whether combining export inhibitors with chemotherapeutic drugs currently used in the clinics enhances drug-induced cancer cell death.
72h post treatment, cells were analyzed by adding 10µl of AlamarBlue® (Invitrogen). Fluorescence (538/600nm) was measured with a LuminoskanAscent (ThermoScientific). Cells treated with DMSO only were used as a control. The fluorescence measured (equals cell viability) with said control was set to 100%.

[8] = system: HIV-1 (strain NL4-3; CXCR-4 tropic); assay: HIV-1 replication inhibition assay in infected Tzm-bl cells (RT activity in supernatant); type: cell-based; conditions: 25 or 50µM added 24h post infection, read 48h post infection
Protocol: The HIV-1 Rev protein transports unspliced and inclompletely spliced viral RNAs from the nucleus into the cytoplasm, crucial for viral replication and AIDS development (Pavlakis and Stauber, 1998; Stauber et al., 1995). […] 24h post infection, DMSO only (control) or compounds C3 or C5 (stock solution in DMSO) were added to a final concentration of 25 or 50µM. 24h later (= 48h post infection) the viral particles in the supernatant were quantified by measuring reverse transcriptase (RT) activity in the viral supernatant using the RT-Lenti Kit (Cavidi-Tech; Uppsala, Sweden) (see Fig. 6A).

[9] = target: human CRM1 (Crm1-HA) (Homo sapiens, UniProt O14980); assay: In vitro pull-down of Crm1-HA with GST-SurvivinNES-GFP beads; type: binding; conditions: preincubation 1mM, 30min at 4°C
Sequence of human CRM1 (Crm1-HA) (O14980 whole entry): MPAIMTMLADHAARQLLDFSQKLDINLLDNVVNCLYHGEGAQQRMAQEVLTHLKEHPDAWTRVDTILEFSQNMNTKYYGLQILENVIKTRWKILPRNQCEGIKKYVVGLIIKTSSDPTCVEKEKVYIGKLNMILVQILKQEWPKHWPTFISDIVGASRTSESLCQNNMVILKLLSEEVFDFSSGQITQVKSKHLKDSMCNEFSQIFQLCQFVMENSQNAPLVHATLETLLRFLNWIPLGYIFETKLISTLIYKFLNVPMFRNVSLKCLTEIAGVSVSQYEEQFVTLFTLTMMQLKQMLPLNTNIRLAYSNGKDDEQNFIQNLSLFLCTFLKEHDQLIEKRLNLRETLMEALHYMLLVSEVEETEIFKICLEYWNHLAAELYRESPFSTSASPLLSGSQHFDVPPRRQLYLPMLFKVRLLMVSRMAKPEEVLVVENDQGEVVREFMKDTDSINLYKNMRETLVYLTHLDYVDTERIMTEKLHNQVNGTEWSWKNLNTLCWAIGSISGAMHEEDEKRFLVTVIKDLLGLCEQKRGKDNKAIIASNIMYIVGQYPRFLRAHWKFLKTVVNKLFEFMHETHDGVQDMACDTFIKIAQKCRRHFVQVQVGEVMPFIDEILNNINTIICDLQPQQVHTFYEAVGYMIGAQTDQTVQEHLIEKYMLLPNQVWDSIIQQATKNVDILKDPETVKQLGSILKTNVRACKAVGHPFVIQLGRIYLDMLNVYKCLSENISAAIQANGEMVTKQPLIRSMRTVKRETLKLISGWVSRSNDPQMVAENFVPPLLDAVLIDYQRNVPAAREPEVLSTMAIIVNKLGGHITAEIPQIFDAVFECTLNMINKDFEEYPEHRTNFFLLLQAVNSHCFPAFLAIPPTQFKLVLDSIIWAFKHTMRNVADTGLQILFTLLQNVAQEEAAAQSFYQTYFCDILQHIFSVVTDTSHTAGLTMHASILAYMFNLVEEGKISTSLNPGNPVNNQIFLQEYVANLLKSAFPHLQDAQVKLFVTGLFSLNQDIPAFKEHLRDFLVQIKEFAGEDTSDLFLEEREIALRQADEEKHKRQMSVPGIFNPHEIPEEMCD
Protocol: The binding of LMB and of compounds C3 and C5 to CRM1 was examined by in vitro pull-down assays as described by Stauber et al., 2006. Briefly, in vitro coupled transcription/translation was performed using the TNT reticulocyte lysate system (Promega, Madison, WI, USA) supplemented with methionine (Promega, Madison, WI, USA) and plasmid pCrm1_HA (1µg), encoding a hemagglutinin epitope-tagged version of human CRM1 (Crm1-HA), as the template. Equal amounts of the Crm1-HA TNT reaction were preincubated with either DMSO (negative control; 0.1%), LMB (400nM, final concentration), C3 (1 mM; final concentration) or C5 (1mM; final concentration) in binding-buffer containing 5mM MgCl2 (AppliChem, Darmstadt, Germany), 2mM GTP (PEQLAB, Erlangen, Germany), 50mM Hepes pH 7.9 (AppliChem, Darmstadt, Germany), 200mM KCI (AppliChem, Darmstadt, Germany), 0.4% Tween 20 (AppliChem, Darmstadt, Germany), supplemented with complete protease inhibitor cocktail (Roche, Mannheim, Germany) for 30min at 4°C. Subsequently, GST-Sepharose beads loaded with 25µg recombinant GST-SurvivinNES-GFP and 5µg GST-RanQ96L were added to each drug-treated TNT reaction. Recombinant GST-SurvivinNES-GFP and GST-RanQ96L were purified from bacteria as described by Stauber et al., 2006. Pull-down was performed for 4h at 4°C in a rotating wheel. Samples were then centrifuged (3500rpm, 1min, 4°C) to recover the GST-SurvivinNES-GFP beads with bound Crm1-HA. Beads were washed three times with binding-buffer (500µl each washing step, 3500rpm, 1min, 4°C). Finally, bound proteins were eluted by adding 25µl 2xSDS-sample buffer (250mM Tris-HCl pH 6.8; 2% w/v SDS, 20% glycerol, 2% β-mercaptoethanol, 0.002% w/v bromophenol blue) and incubating at 95°C for 2min. Samples were separated by SDS-gelelectrophoresis and analyzed by immunoblot analysis as described by Stauber et al., 2006. Crm1-HA was detected with HA specific antibodies (MMS-101R, Covance, New Jersey, USA). GFP served as the loading control and was visualized with GFP specific antibodies (sc-8334, Santa Cruz Biotechnology, Heidelberg, Germany).

Row | SMILES | Cellular localization of green fluorescent RevNES-biosensor ([1]; 25µM, T = 0h) | Cellular localization of green fluorescent RevNES-biosensor ([1]; 25µM, T = 24h) | Cellular localization of green fluorescent RevNES-biosensor ([1]; 25µM, at Topt) | Cellular localization of green fluorescent RevNES-biosensor ([1]; 75µM, T = 0h) | Cellular localization of green fluorescent RevNES-biosensor ([1]; 150µM, T = 0h) | Topt at 25µM ([1]; 25µM) | Mode of Inhibition [1] | Cellular localization of green fluorescent RevNES-biosensor ([2]; FaDu, 25µM) | Cellular localization of green fluorescent RevNES-biosensor ([2]; MDA-MB231, 25µM) | Cellular localization of green fluorescent RevNES-biosensor ([2]; SW480, 25µM) | Localization of Survivin-GFP fusion (nuclear export of Survivin) [3] | cell death induced by treatment [4] | viability compared to the control [4] | cell death induced by treatment [5] | drug-induced apoptosis (cleaved Caspase 3 and PARP cleavage) [6] | cancer cell death (AlamarBlue viability) [7] | RT-activity in the viral supernatant compared to the control [8] | interaction of Crm1-HA with the export substrate GST-SurvivinNES-GFP [9] | further results
1 | NC(=O)c1c(NC(NC(=O)c2ccccc2F)(C(F)(F)F)C(F)(F)F)sc2c1CCCC2 [Compound C3, 2-[[1,1,1,3,3,3-hexafluoro-2-[(2-fluorobenzoyl)amino]propan-2-yl]amino]-4,5,6,7-tetrahydro-1-benzothiophene-3-carboxamide] | cytoplasm | predominantly localized in the cytoplasm | nuclear accumulation; also recorded: nucleus | cytoplasm | cytoplasm | ∼1h | reversible | nuclear accumulation; also recorded: nucleus | nuclear accumulation; also recorded: nucleus | nuclear accumulation; also recorded: nucleus | inhibited; also recorded: accumulated in the nucleus | cell death | significantly reduced viability | cell death | drug-induced apoptosis was shown | caused cancer cell death | significantly reduced the RT-activity | did not affected the CRM1 binding | Cellular localization of green fluorescent RevNES-biosensor ([1]; 25µM, T = 1h): nucleus/cytoplasm; Cellular localization of green fluorescent RevNES-biosensor ([1]; 75µM, T = 1h): nucleus; Cellular localization of green fluorescent RevNES-biosensor ([1]; 150µM, T = 1h): nucleus
2 | O=C(NC1CS(=O)(=O)CC1Cl)c1cccc(C(F)(F)F)c1 (stereo not drawn) [Compound C5, N-(4-chloro-1,1-dioxothiolan-3-yl)-3-(trifluoromethyl)benzamide] | cytoplasm | nuclear fluorescence; also recorded: nucleus | nuclear accumulation; also recorded: nucleus | cytoplasm | cytoplasm | 5 to 6 h | irreversible; also recorded: irreversible* | nuclear accumulation; also recorded: nucleus | nuclear accumulation; also recorded: nucleus | nuclear accumulation; also recorded: nucleus | inhibited; also recorded: accumulated in the nucleus | cell death | significantly reduced viability | cell death | drug-induced apoptosis was shown | caused cancer cell death | significantly reduced the RT-activity | did not affected the CRM1 binding | Cellular localization of green fluorescent RevNES-biosensor ([1]; 25µM, T = 3h): nucleus/cytoplasm; Cellular localization of green fluorescent RevNES-biosensor ([1]; 75µM, T = 3h): nucleus; Cellular localization of green fluorescent RevNES-biosensor ([1]; 150µM, T = 3h): nucleus

Source: patent EP2616456B1, “NUCLEAR EXPORT INHIBITORS” (Universitätsmedizin der Johannes Gutenberg-Universität Mainz, priority 2010, dated 2012)
